The text below walks through data of publication PMC9118996, “Directed evolution of Zymomonas mobilis sugar facilitator Glf to overcome glucose inhibition” (Journal of Industrial Microbiology & Biotechnology, 2021).

The target in this assay is T1, Glf (Zymomonas mobilis sugar / glucose facilitator) (Zymomonas mobilis, UniProt P21906).
T1 construct: full-length glf coding region with 20 bp native flanks in pTrc99A (pGlfwt), no tag told; expressed in E. coli W derivatives EG29 and EG51A lacking glucose and xylose uptake
T1 sequence (P21906 1-473): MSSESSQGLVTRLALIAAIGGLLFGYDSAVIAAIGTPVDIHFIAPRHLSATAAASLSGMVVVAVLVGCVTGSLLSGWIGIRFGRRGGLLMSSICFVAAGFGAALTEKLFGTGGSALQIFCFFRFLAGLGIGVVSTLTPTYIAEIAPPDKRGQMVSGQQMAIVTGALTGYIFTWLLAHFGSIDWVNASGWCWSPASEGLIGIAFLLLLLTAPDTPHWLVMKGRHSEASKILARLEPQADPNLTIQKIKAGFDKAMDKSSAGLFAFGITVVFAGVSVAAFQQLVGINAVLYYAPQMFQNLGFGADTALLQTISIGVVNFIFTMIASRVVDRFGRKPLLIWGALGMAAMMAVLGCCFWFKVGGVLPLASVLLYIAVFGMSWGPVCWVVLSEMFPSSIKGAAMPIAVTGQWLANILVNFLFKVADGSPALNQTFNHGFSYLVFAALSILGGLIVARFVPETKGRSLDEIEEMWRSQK
Description: xylose utilization in fermentation of transport-deficient E. coli with Glf vs empty vector (HPLC). In kind it is cell-based, Escherichia coli. Conditions: E. coli EG51A (EG29 glk-), 34 g/l xylose alone, pH 7.0, 37 °C, 10 µM IPTG; facilitated uptake; whole-cell read-out.

Take `OC1OC[C@@H](O)[C@H](O)[C@H]1O` (stereo partly drawn) [D-xylose]: the “xylose utilization in fermentation of transport-deficient E. coli with Glf vs em” value is listed as “EG51A transformed with pGlfwt showed much improved xylose utilization compared to EG51A with empty vector”.
